Source: PubChem BioAssay (NCI)
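A five-concentration, 48-hour dose response in 96-well plates underlies each endpoint, interpolated linearly between surrounding concentrations. GI50 marks 50% less growth. The concentration for full growth arrest is given as TGI.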

Columns and labels:
Assay in all cases: NCI anticancer screen, dose series, 48 h; in the data active = GI50 below about 0.43 µM; inactive = the rest
786-0 renal = system: 786-0 renal
A549 NSCLC = system: A549 NSCLC
BT-549 breast = system: BT-549 breast
CAKI-1 renal = system: CAKI-1 renal
CCRF-CEM leukemia = system: CCRF-CEM leukemia
COLO 205 colon = system: COLO 205 colon
DU-145 prostate = system: DU-145 prostate
EKVX NSCLC = system: EKVX NSCLC
HCT-116 colon = system: HCT-116 colon
HCT-15 colon = system: HCT-15 colon
HL-60(TB) leukemia = system: HL-60(TB) leukemia
HOP-62 NSCLC = system: HOP-62 NSCLC
HS 578T breast = system: HS 578T breast
HT29 colon = system: HT29 colon
IGROV1 ovarian = system: IGROV1 ovarian
K-562 leukemia = system: K-562 leukemia
KM12 colon = system: KM12 colon
LOX IMVI melanoma = system: LOX IMVI melanoma
M14 melanoma = system: M14 melanoma
MALME-3M melanoma = system: MALME-3M melanoma
MCF7 breast = system: MCF7 breast
MDA-MB-231 breast = system: MDA-MB-231 breast
MDA-MB-435 = system: MDA-MB-435
MOLT-4 leukemia = system: MOLT-4 leukemia
NCI-H226 lung = system: NCI-H226 lung
NCI-H23 lung = system: NCI-H23 lung
NCI-H522 lung = system: NCI-H522 lung
NCI/ADR-RES ovarian = system: NCI/ADR-RES ovarian
OVCAR-3 ovarian = system: OVCAR-3 ovarian
OVCAR-4 ovarian = system: OVCAR-4 ovarian
OVCAR-5 ovarian = system: OVCAR-5 ovarian
OVCAR-8 ovarian = system: OVCAR-8 ovarian
PC-3 prostate = system: PC-3 prostate
RPMI-8226 leukemia = system: RPMI-8226 leukemia
RXF 393 renal = system: RXF 393 renal
SF-268 CNS = system: SF-268 CNS
SF-295 CNS = system: SF-295 CNS
SK-MEL-2 melanoma = system: SK-MEL-2 melanoma
SK-MEL-28 melanoma = system: SK-MEL-28 melanoma
SK-MEL-5 melanoma = system: SK-MEL-5 melanoma
SK-OV-3 ovarian = system: SK-OV-3 ovarian
SN12C renal = system: SN12C renal
SNB-19 CNS = system: SNB-19 CNS
SNB-75 CNS = system: SNB-75 CNS
SW-620 colon = system: SW-620 colon
T-47D breast = system: T-47D breast
TK-10 renal = system: TK-10 renal
U251 CNS = system: U251 CNS
UACC-257 melanoma = system: UACC-257 melanoma
UACC-62 melanoma = system: UACC-62 melanoma
UO-31 renal = system: UO-31 renal
A498 renal = system: A498 renal
ACHN renal = system: ACHN renal
HCC-2998 colon = system: HCC-2998 colon
HOP-92 NSCLC = system: HOP-92 NSCLC
NCI-H460 lung = system: NCI-H460 lung
SF-539 CNS = system: SF-539 CNS
SR leukemia = system: SR leukemia

Cc1ccc2c(=O)cc(Cc3cccs3)[nH]c2n1
> 100 µM: TGI (786-0 renal) | TGI (A549 NSCLC) | TGI (BT-549 breast) | TGI (CAKI-1 renal) | TGI (CCRF-CEM leukemia) | TGI (COLO 205 colon) | TGI (DU-145 prostate) | TGI (EKVX NSCLC) | TGI (HCT-116 colon) | TGI (HCT-15 colon) | TGI (HL-60(TB) leukemia) | TGI (HOP-62 NSCLC) | TGI (HS 578T breast) | TGI (HT29 colon) | TGI (IGROV1 ovarian) | TGI (K-562 leukemia) | TGI (KM12 colon) | TGI (LOX IMVI melanoma) | TGI (M14 melanoma) | TGI (MALME-3M melanoma) | TGI (MCF7 breast) | TGI (MDA-MB-231 breast) | TGI (MDA-MB-435) | TGI (MOLT-4 leukemia) | TGI (NCI-H226 lung) | TGI (NCI-H23 lung) | TGI (NCI-H522 lung) | TGI (NCI/ADR-RES ovarian) | TGI (OVCAR-3 ovarian) | TGI (OVCAR-4 ovarian) | TGI (OVCAR-5 ovarian) | TGI (OVCAR-8 ovarian) | TGI (PC-3 prostate) | TGI (RPMI-8226 leukemia) | TGI (RXF 393 renal) | TGI (SF-268 CNS) | TGI (SF-295 CNS) | TGI (SK-MEL-2 melanoma) | TGI (SK-MEL-28 melanoma) | TGI (SK-MEL-5 melanoma) | TGI (SK-OV-3 ovarian) | TGI (SN12C renal) | TGI (SNB-19 CNS) | TGI (SNB-75 CNS) | TGI (SW-620 colon) | TGI (T-47D breast) | TGI (TK-10 renal) | TGI (U251 CNS) | TGI (UACC-257 melanoma) | TGI (UACC-62 melanoma) | TGI (UO-31 renal)

FC(F)(F)c1ccc(Cc2nc3cc4ccccc4cc3[nH]2)cc1
> 100 µM: TGI (786-0 renal) | TGI (A498 renal) | TGI (A549 NSCLC) | TGI (ACHN renal) | TGI (BT-549 breast) | TGI (CAKI-1 renal) | TGI (CCRF-CEM leukemia) | TGI (COLO 205 colon) | TGI (DU-145 prostate) | TGI (EKVX NSCLC) | TGI (HCC-2998 colon) | TGI (HCT-116 colon) | TGI (HCT-15 colon) | TGI (HL-60(TB) leukemia) | TGI (HOP-62 NSCLC) | TGI (HS 578T breast) | TGI (HT29 colon) | TGI (IGROV1 ovarian) | TGI (K-562 leukemia) | TGI (KM12 colon) | TGI (LOX IMVI melanoma) | TGI (M14 melanoma) | TGI (MALME-3M melanoma) | TGI (MCF7 breast) | TGI (MDA-MB-231 breast) | TGI (MDA-MB-435) | TGI (NCI-H226 lung) | TGI (NCI-H23 lung) | TGI (NCI-H460 lung) | TGI (NCI-H522 lung) | TGI (NCI/ADR-RES ovarian) | TGI (OVCAR-3 ovarian) | TGI (OVCAR-4 ovarian) | TGI (OVCAR-5 ovarian) | TGI (OVCAR-8 ovarian) | TGI (PC-3 prostate) | TGI (RPMI-8226 leukemia) | TGI (RXF 393 renal) | TGI (SF-268 CNS) | TGI (SF-295 CNS) | TGI (SF-539 CNS) | TGI (SK-MEL-2 melanoma) | TGI (SK-MEL-28 melanoma) | TGI (SK-MEL-5 melanoma) | TGI (SN12C renal) | TGI (SNB-19 CNS) | TGI (SW-620 colon) | TGI (T-47D breast) | TGI (TK-10 renal) | TGI (U251 CNS) | TGI (UACC-257 melanoma) | TGI (UACC-62 melanoma) | TGI (UO-31 renal)
36.1 µM: TGI (SNB-75 CNS)
47.8 µM: TGI (HOP-92 NSCLC)

c1ccc(N2N=C(c3cccc(Nc4ccncc4)c3)CC2c2ccc3c(c2)OCO3)cc1 (stereo not given)
2.84 µM: TGI (UO-31 renal)
2.92 µM: TGI (OVCAR-3 ovarian)
4.85 µM: TGI (OVCAR-5 ovarian)
4.01 µM: TGI (SK-MEL-2 melanoma)
3.99 µM: TGI (TK-10 renal)
2.54 µM: TGI (SW-620 colon)
7.85 µM: TGI (CCRF-CEM leukemia)
5.05 µM: TGI (NCI-H226 lung)
4.25 µM: TGI (MCF7 breast)
3.21 µM: TGI (ACHN renal)
active: GI50 (MDA-MB-435) 0.383 µM
inactive: GI50 (A498 renal) 1.24 µM | GI50 (ACHN renal) 1.64 µM | GI50 (BT-549 breast) 1.83 µM | GI50 (CAKI-1 renal) 1.3 µM | GI50 (CCRF-CEM leukemia) 1.78 µM | GI50 (COLO 205 colon) 1.8 µM | GI50 (DU-145 prostate) 1.85 µM | GI50 (EKVX NSCLC) 2.66 µM | GI50 (HCC-2998 colon) 1.84 µM | GI50 (HCT-15 colon) 1.49 µM | GI50 (HL-60(TB) leukemia) 1.77 µM | GI50 (HOP-92 NSCLC) 1.1 µM | GI50 (HS 578T breast) 1.55 µM | GI50 (IGROV1 ovarian) 1.7 µM | GI50 (KM12 colon) 1.51 µM | GI50 (LOX IMVI melanoma) 1.69 µM | GI50 (M14 melanoma) 1.63 µM | GI50 (MALME-3M melanoma) 1.57 µM | GI50 (MCF7 breast) 1.74 µM | GI50 (NCI-H226 lung) 2.07 µM | GI50 (NCI-H23 lung) 1.94 µM | GI50 (NCI-H460 lung) 1.71 µM | GI50 (NCI-H522 lung) 1.61 µM | GI50 (NCI/ADR-RES ovarian) 1.66 µM | GI50 (OVCAR-3 ovarian) 1.48 µM | GI50 (OVCAR-4 ovarian) 1.53 µM | GI50 (OVCAR-5 ovarian) 2.06 µM | GI50 (RXF 393 renal) 1.61 µM | GI50 (SF-268 CNS) 1.79 µM | GI50 (SF-295 CNS) 1.87 µM | GI50 (SF-539 CNS) 1.7 µM | GI50 (SK-MEL-2 melanoma) 2.02 µM | GI50 (SK-MEL-28 melanoma) 1.66 µM | GI50 (SK-MEL-5 melanoma) 1.77 µM | GI50 (SK-OV-3 ovarian) 2.73 µM | GI50 (SN12C renal) 1.71 µM | GI50 (SNB-19 CNS) 2.2 µM | GI50 (SNB-75 CNS) 1.47 µM | GI50 (SR leukemia) 0.955 µM | GI50 (SW-620 colon) 1.18 µM | GI50 (T-47D breast) 2.1 µM | GI50 (TK-10 renal) 1.94 µM | GI50 (U251 CNS) 1.81 µM | GI50 (UACC-257 melanoma) 2 µM | GI50 (UACC-62 melanoma) 1.73 µM | GI50 (UO-31 renal) 1.4 µM
3.69 µM: TGI (HL-60(TB) leukemia)
2.47 µM: TGI (HOP-92 NSCLC)
3.36 µM: TGI (HCC-2998 colon)
3.51 µM: TGI (SF-295 CNS)
5.12 µM: TGI (T-47D breast)
3.14 µM: TGI (SK-MEL-28 melanoma)
3.08 µM: TGI (LOX IMVI melanoma)
4.04 µM: TGI (NCI-H23 lung)
3.66 µM: TGI (DU-145 prostate)
5.58 µM: TGI (A498 renal)
3.42 µM: TGI (HS 578T breast)
3.24 µM: TGI (UACC-62 melanoma)
4.09 µM: TGI (UACC-257 melanoma)
3.75 µM: TGI (SF-268 CNS)
10.2 µM: TGI (SK-OV-3 ovarian)
3.48 µM: TGI (M14 melanoma) | TGI (NCI-H522 lung)
4.06 µM: TGI (BT-549 breast)
6.67 µM: TGI (SNB-19 CNS)
3.06 µM: TGI (MALME-3M melanoma) | TGI (RXF 393 renal)
3.18 µM: TGI (KM12 colon) | TGI (NCI-H460 lung) | TGI (SF-539 CNS)
3.84 µM: TGI (COLO 205 colon)
3.17 µM: TGI (SK-MEL-5 melanoma)
3.38 µM: TGI (HCT-15 colon)
1.47 µM: TGI (MDA-MB-435)
2.69 µM: TGI (CAKI-1 renal)
2.89 µM: TGI (SR leukemia)
3.6 µM: TGI (IGROV1 ovarian) | TGI (NCI/ADR-RES ovarian)
3.74 µM: TGI (SNB-75 CNS) | TGI (U251 CNS)
11 µM: TGI (EKVX NSCLC)
3.89 µM: TGI (OVCAR-4 ovarian)
3.25 µM: TGI (SN12C renal)
